Assay results: ChEMBL document CHEMBL1201862, “PubChem BioAssay data set” (2004)
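Cultured in 96-well plates, cells were exposed to test compound for 48 hours across five concentrations. Abbreviation: GI50, concentration required for 50% inhibition of growth.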 Calls of active or inactive are those of the source. No stated cut-off is given here; in the data, active = GI50 up to about 1.1 µM and inactive = higher.

How the values were obtained:
Assay in all cases: DTP human tumour cell line panel, 48 h
786-0 = system: 786-0
A549 = system: A549
DU-145 = system: DU-145
HOP-92 = system: HOP-92
LOX IMVI = system: LOX IMVI
MOLT-4 = system: MOLT-4
NCI-H23 = system: NCI-H23
NCI-H522 = system: NCI-H522
OVCAR-3 = system: OVCAR-3
OVCAR-4 = system: OVCAR-4
SF-268 = system: SF-268
SK-MEL-2 = system: SK-MEL-2
SK-MEL-5 = system: SK-MEL-5
SN12C = system: SN12C
SNB-75 = system: SNB-75
U-251 = system: U-251
UACC-257 = system: UACC-257
UO-31 = system: UO-31
Malme-3M = system: Malme-3M

Measured: GI50

CCCCCCCCC[C@@H]1C[C@@H]2CCC3C(C(=O)OCCCCNC(=O)OCc4ccccc4)=C(C)N=C(N1)N32 (stereo partly drawn)
inactive: 786-0 1.76 µM | A549 4.57 µM | DU-145 4.76 µM | HOP-92 2.78 µM | LOX IMVI 2.09 µM | MOLT-4 2.59 µM | NCI-H23 2.56 µM | NCI-H522 2.52 µM | OVCAR-3 4.04 µM | OVCAR-4 3.97 µM | SF-268 2.85 µM | SK-MEL-2 1.92 µM | SK-MEL-5 1.59 µM | SN12C 3.13 µM | SNB-75 4.59 µM | U-251 2.9 µM | UACC-257 3.27 µM | UO-31 4.49 µM

CCOC(=O)c1c[nH]c(C(=O)OCC)c1-c1cccn1-c1ccccc1
inactive: 786-0 22.8 µM | A549 26.6 µM | DU-145 43.2 µM | HOP-92 23.3 µM | LOX IMVI 16.9 µM | MOLT-4 15.3 µM | Malme-3M 10.8 µM | NCI-H23 28.5 µM | NCI-H522 13 µM | OVCAR-3 16.8 µM | SF-268 25.5 µM | SK-MEL-2 14.5 µM | SK-MEL-5 14.1 µM | SN12C 27 µM | SNB-75 7.06 µM | U-251 19.2 µM | UACC-257 26.1 µM | UO-31 18.4 µM

Oc1ccc2ccccc2c1/N=N\c1cccc2ccccc12
inactive: 786-0 > 100 µM | A549 > 100 µM | DU-145 > 100 µM | HOP-92 > 100 µM | LOX IMVI > 100 µM | MOLT-4 93.1 µM | NCI-H23 > 100 µM | NCI-H522 82.6 µM | OVCAR-3 > 100 µM | OVCAR-4 > 100 µM | SF-268 > 100 µM | SK-MEL-2 > 100 µM | SK-MEL-5 > 100 µM | SN12C > 100 µM | SNB-75 > 100 µM | U-251 > 100 µM | UACC-257 > 100 µM | UO-31 > 100 µM

CCOC(=O)CC1(N)CC2c3ccccc3OC(=O)C2C(=O)N1 (stereo not drawn)
inactive: 786-0 > 100 µM | A549 > 100 µM | DU-145 > 100 µM | HOP-92 > 100 µM | LOX IMVI > 100 µM | MOLT-4 > 100 µM | Malme-3M > 100 µM | NCI-H23 > 100 µM | NCI-H522 > 100 µM | OVCAR-3 > 100 µM | OVCAR-4 > 100 µM | SF-268 > 100 µM | SK-MEL-2 > 100 µM | SN12C > 100 µM | SNB-75 > 100 µM | U-251 > 100 µM | UACC-257 > 100 µM | UO-31 > 100 µM

CCCCCCCCCCCCCCCCOC[C@@H](COC(c1ccccc1)(c1ccccc1)c1ccccc1)O[PH](=S)OC (stereo partly drawn)
inactive: 786-0 6.49 µM | A549 5.61 µM | DU-145 17 µM | HOP-92 12.4 µM | LOX IMVI 2.98 µM | MOLT-4 20.4 µM | NCI-H23 10.9 µM | NCI-H522 10.2 µM | OVCAR-3 13.2 µM | OVCAR-4 9.35 µM | SF-268 9.25 µM | SK-MEL-2 11.1 µM | SK-MEL-5 4.81 µM | SN12C 5.32 µM | SNB-75 10.3 µM | U-251 4.04 µM | UACC-257 11.6 µM | UO-31 16.4 µM

NS(=O)(=O)c1ccc(NC(=S)N/C=C2\C(=O)Oc3ccccc3C2=O)cc1
inactive: 786-0 40 µM | A549 43 µM | DU-145 27.4 µM | HOP-92 15.3 µM | LOX IMVI 33.6 µM | MOLT-4 53 µM | NCI-H23 38.5 µM | NCI-H522 23.2 µM | OVCAR-3 27.2 µM | OVCAR-4 43 µM | SF-268 38.5 µM | SK-MEL-2 15.3 µM | SK-MEL-5 26.1 µM | SN12C 22.5 µM | SNB-75 4.2 µM | U-251 36.2 µM | UACC-257 67.8 µM | UO-31 17.6 µM

O=c1[nH]c(=O)n(Cc2ccccc2CO)cc1Sc1ccccc1
inactive: 786-0 47.2 µM | A549 18.5 µM | DU-145 58.9 µM | HOP-92 36.2 µM | MOLT-4 54.5 µM | Malme-3M 21.4 µM | NCI-H23 17.4 µM | NCI-H522 1.87 µM | OVCAR-3 19.5 µM | OVCAR-4 50 µM | SF-268 22.8 µM | SK-MEL-2 19.3 µM | SK-MEL-5 10.1 µM | SN12C 34.8 µM | SNB-75 36.6 µM | U-251 34.4 µM | UACC-257 21.6 µM | UO-31 7.4 µM

O=c1cc(N2CCCC2)[nH]c(=O)n1-c1ccc(F)cc1
inactive: 786-0 > 100 µM | A549 > 100 µM | DU-145 > 100 µM | HOP-92 > 100 µM | LOX IMVI > 100 µM | MOLT-4 > 100 µM | Malme-3M > 100 µM | NCI-H23 > 100 µM | NCI-H522 > 100 µM | OVCAR-3 > 100 µM | OVCAR-4 > 100 µM | SF-268 > 100 µM | SK-MEL-2 > 100 µM | SN12C > 100 µM | SNB-75 > 100 µM | U-251 > 100 µM | UACC-257 > 100 µM

COc1ccc(CCCCl)c(C2=NCCc3cc(OC)c(OC)cc32)c1
inactive: 786-0 94.8 µM | A549 69.7 µM | DU-145 > 100 µM | HOP-92 20.6 µM | MOLT-4 41.6 µM | NCI-H23 31.5 µM | NCI-H522 28.8 µM | OVCAR-3 92.7 µM | OVCAR-4 > 100 µM | SF-268 49.3 µM | SK-MEL-2 39.7 µM | SK-MEL-5 26.1 µM | SN12C 54.3 µM | SNB-75 42.3 µM | U-251 23.6 µM | UACC-257 42.3 µM | UO-31 38 µM

CCSc1nn(-c2c3ccccc3nc3ccccc23)c(=S)s1
inactive: 786-0 > 100 µM | A549 > 100 µM | DU-145 > 100 µM | HOP-92 > 100 µM | LOX IMVI > 100 µM | MOLT-4 > 100 µM | NCI-H23 > 100 µM | NCI-H522 > 100 µM | OVCAR-3 > 100 µM | OVCAR-4 > 100 µM | SF-268 > 100 µM | SK-MEL-2 > 100 µM | SK-MEL-5 > 100 µM | SN12C > 100 µM | SNB-75 61.9 µM | U-251 > 100 µM | UACC-257 > 100 µM | UO-31 > 100 µM

Cc1cc(-c2ccccc2)nc2oc(=O)n(C)c12
inactive: 786-0 37.8 µM | A549 > 100 µM | DU-145 > 100 µM | HOP-92 86.5 µM | LOX IMVI > 100 µM | MOLT-4 > 100 µM | Malme-3M > 100 µM | NCI-H23 83.9 µM | NCI-H522 > 100 µM | OVCAR-3 > 100 µM | OVCAR-4 > 100 µM | SF-268 > 100 µM | SK-MEL-2 79.3 µM | SK-MEL-5 > 100 µM | SN12C 71.8 µM | U-251 51.1 µM | UACC-257 > 100 µM | UO-31 > 100 µM

COc1cc2c(cc1OC)C(=O)N(c1ccc(O)cc1)C2
inactive: 786-0 > 100 µM | A549 > 100 µM | DU-145 > 100 µM | HOP-92 > 100 µM | LOX IMVI > 100 µM | MOLT-4 > 100 µM | Malme-3M > 100 µM | NCI-H23 > 100 µM | NCI-H522 > 100 µM | OVCAR-3 > 100 µM | OVCAR-4 > 100 µM | SF-268 > 100 µM | SK-MEL-2 > 100 µM | SK-MEL-5 > 100 µM | SN12C > 100 µM | U-251 > 100 µM | UACC-257 > 100 µM

COc1cc(/C=C2\C(=O)N(c3cccc(Cl)c3)C(c3ccccc3)S2(=O)=O)cc(OC)c1OC (stereo not drawn)
inactive: 786-0 42.2 µM | A549 70.8 µM | DU-145 > 100 µM | HOP-92 30.6 µM | LOX IMVI 22.2 µM | MOLT-4 23.9 µM | Malme-3M 43.4 µM | NCI-H23 66.2 µM | NCI-H522 17.8 µM | OVCAR-3 48.8 µM | OVCAR-4 85.5 µM | SF-268 55.8 µM | SK-MEL-2 > 100 µM | SK-MEL-5 39.2 µM | SN12C 72.8 µM | U-251 73.8 µM | UACC-257 76 µM | UO-31 32.3 µM

CCOC(=O)c1sc2nc(SC)nc3c2c1NCN3c1ccc2c(c1)OCCCO2
inactive: 786-0 6.31 µM | A549 9.48 µM | DU-145 > 100 µM | HOP-92 79.3 µM | LOX IMVI > 100 µM | MOLT-4 > 100 µM | Malme-3M > 100 µM | NCI-H23 70.8 µM | NCI-H522 > 100 µM | OVCAR-3 18.6 µM | OVCAR-4 > 100 µM | SF-268 13.3 µM | SK-MEL-2 > 100 µM | SK-MEL-5 12.2 µM | SN12C 49.7 µM | U-251 7.57 µM | UACC-257 > 100 µM | UO-31 37.9 µM

c1cncc(CC2(c3cc4ccccc4[nH]3)OCCO2)c1
inactive: 786-0 > 100 µM | A549 81.8 µM | DU-145 > 100 µM | HOP-92 > 100 µM | LOX IMVI > 100 µM | Malme-3M > 100 µM | NCI-H23 > 100 µM | NCI-H522 > 100 µM | OVCAR-4 > 100 µM | SF-268 > 100 µM | SK-MEL-2 > 100 µM | SK-MEL-5 61.8 µM | SN12C > 100 µM | SNB-75 > 100 µM | U-251 > 100 µM | UACC-257 66.5 µM | UO-31 40.6 µM

COc1ccc2c(c1)CCc1cc(C(N)=O)c3nnnn3c1-2
inactive: 786-0 33.6 µM | A549 > 100 µM | DU-145 23.7 µM | HOP-92 30.9 µM | LOX IMVI > 58.1 µM | MOLT-4 > 38.8 µM | Malme-3M 18.2 µM | NCI-H23 60.1 µM | NCI-H522 27.9 µM | OVCAR-3 > 54.3 µM | OVCAR-4 > 81.3 µM | SF-268 2.98 µM | SK-MEL-2 > 42.1 µM | SK-MEL-5 > 100 µM | SN12C 99.8 µM | U-251 23.6 µM | UACC-257 85.5 µM
